Structures are written as SMILES.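 Where inhibition never reached the appropriate level, the endpoint shown equals the highest concentration tested. Otherwise, values were interpolated linearly from a five-concentration, 48-hour dose response in 96-well plates. TGI is the concentration that stops growth completely.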

Assay in all cases: NCI tumour cell line growth inhibition, 48 h
For assay [1], the system named is U251 CNS.
Assay [2] relates to BT-549 breast.
For assay [3], the system named is T-47D breast.
Assay [4] relates to ACHN renal.
Assay [5] relates to MCF7 breast.
The test system of assay [6] is TK-10 renal.
The subject of assay [7] is MDA-MB-231 breast.
The test system of assay [8] is NCI-H460 lung.
For assay [9], the system named is NCI-H226 lung.
For assay [10], the system named is OVCAR-4 ovarian.
For assay [11], the system named is COLO 205 colon.
In assay [12] the test system is SK-MEL-28 melanoma.
Assay [13] deals with SNB-19 CNS.
Assay [14] concerns DU-145 prostate.
Assay [15] relates to UO-31 renal.
Assay [16] deals with IGROV1 ovarian.
In assay [17] the test system is SR leukemia.
Assay [18] has as its system NCI-H23 lung.
Assay [19] concerns A498 renal.
Assay [20] relates to SK-OV-3 ovarian.

As for `Cc1cc2c(cc1C)C(=O)C1(C2)Cc2c(C)ccc(C)c2C1=O` (stereo not given), the TGI in assay [1], in assay [2], in [3], in assay [4], in assay [5] and in assay [6] was more than 100 µM each time. Also, the TGI in assay [7], in assay [8], in [9], in assay [10], in assay [11] and in assay [12] was more than 100 µM in each case. Also, the TGI in assay [13], in assay [14], in [15], in assay [16] and in assay [17] was more than 100 µM each time.
On to `Cc1cn(C2CC(O)C(CO[Si](C)(C)C(C)(C)C)OC2OC(C)C)c(=O)[nH]c1=O` (stereo not given), for which the TGI in assay [1] is more than 100 µM; in assay [2], more than 100 µM; in assay [3], more than 100 µM; in assay [4], more than 100 µM; in assay [5] it was 58.3 µM; in assay [6] it was more than 100 µM. The TGI in assay [7] is more than 100 µM; in assay [8], more than 100 µM; in assay [9], more than 100 µM; in assay [10], more than 100 µM; in [11], 48.9 µM; in assay [18], more than 100 µM. Further, the TGI in assay [12] is more than 100 µM; in assay [13], more than 100 µM; in assay [14], more than 100 µM; in assay [15] it was more than 100 µM; in [16] it was 77 µM; in [17] it was 62.4 µM.
Take `C#CC(C)(C)OC(=O)C(=[N+]=[N-])C(C)=O`: the TGI in assay [1], in [2], in [3], in assay [4], in assay [5] and in [19] was more than 10 µM each time. The TGI in assay [6], in assay [7], in assay [20], in assay [8], in [9] and in assay [18] was more than 10 µM in each case. Besides, the TGI in [12], in assay [13], in assay [14], in assay [15], in [16] and in assay [17] was more than 10 µM each time.
Regarding `CCC(=O)O[C@H]1CC[C@H]2[C@@H]3CCC4=C/C(=N/OC(=O)c5cccc6c(=O)c7ccccc7[nH]c56)CC[C@]4(C)[C@H]3CC[C@]12C`, the TGI in [1] is more than 100 µM; in assay [2] it was more than 100 µM; in [3], more than 100 µM; in assay [4] it was more than 100 µM; in assay [5], 48.2 µM; in [19], 77.7 µM. Further, the TGI in assay [6] is more than 100 µM; in assay [7], more than 100 µM; in assay [20] it was more than 100 µM; in assay [8], 54.5 µM; in assay [9], more than 100 µM; in [10], more than 100 µM. Further, the TGI is more than 100 µM in [11]; more than 100 µM in assay [18]; more than 100 µM in [12]; more than 100 µM in [13]; 62.2 µM in assay [15]; 77.6 µM in assay [16]. Also, in assay [17], the TGI is more than 100 µM.
As to `CCCCCC(=O)CCCCCCCC(O)CC(=O)OCC` (stereo not given), the TGI in assay [1], in assay [2], in assay [3], in assay [4], in assay [5] and in assay [19] was more than 100 µM each time. In addition, the TGI in assay [6], in [7], in assay [8], in assay [9], in [18] and in assay [12] was more than 100 µM throughout. Further, the TGI in assay [13], in assay [14], in assay [15], in assay [16] and in [17] was more than 100 µM each time.
Regarding `COc1ccc(-c2nc(-c3cc4c(ccc5ccccc54)oc3=O)cs2)cc1`, the TGI in assay [2], in assay [3], in assay [4], in assay [5], in assay [6] and in assay [7] was more than 100 µM throughout. Further, the TGI in [20], in assay [8], in [9], in assay [10], in assay [11] and in assay [12] was more than 100 µM each time. Besides, the TGI in assay [13], in assay [14], in [15], in assay [16] and in assay [17] was more than 100 µM throughout.
On to `Cc1nn(C(=O)Cc2ccccc2)c2c1C(c1ccc(Cl)cc1)SC(N)=N2` (stereo not given), for which the TGI in assay [2], in assay [3], in [4], in assay [5], in [19] and in assay [6] was more than 100 µM in each case. In addition, the TGI in assay [7], in [20], in assay [8], in [11], in assay [18] and in assay [12] was more than 100 µM in each case. Besides, the TGI in assay [14], in [16] and in assay [17] was more than 100 µM in each case.
Consider `CCCCCCOc1ccc(Nc2c(O)c3c(c(O)c2Cl)C(=O)C=CC3=O)cc1`, for which the TGI in assay [1] was more than 6.07 µM; in assay [2] it was more than 6.01 µM; in assay [3], more than 10 µM; in [4] it was more than 10 µM; in [5], more than 4.88 µM; in [19], more than 10 µM. Further, the TGI is more than 10 µM in assay [6]; more than 6.11 µM in assay [7]; more than 10 µM in [20]; 6.52 µM in assay [8]; more than 10 µM in assay [9]; more than 8.13 µM in assay [10]. Moreover, the TGI in [11] was 4.15 µM; in assay [18] it was 4.95 µM; in [12], 3.82 µM; in assay [13] it was more than 9.63 µM; in [14], more than 10 µM; in assay [15] it was more than 5.81 µM. In addition, the TGI in assay [17] is 5.33 µM.
With `COc1cc(O)c(C(=O)/C=C/c2ccc(O)cc2)cc1Oc1ccc(/C=C/C(=O)c2ccc(O)cc2O)cc1`, the TGI in [1] is 17.2 µM; in assay [2], 22.6 µM; in assay [3], more than 50 µM; in assay [4], 15.7 µM; in assay [5], 22.9 µM; in [19], 14.1 µM. Also, the TGI is 25.6 µM in assay [6]; 36.7 µM in assay [7]; 15.9 µM in [20]; 30.4 µM in assay [8]; 16 µM in assay [10]; 15.4 µM in assay [11]. Moreover, the TGI in [18] is 33.2 µM; in assay [12], 15.2 µM; in assay [13], 43.1 µM; in assay [14] it was 23.6 µM; in [15], 18.2 µM; in assay [16], 15 µM. In assay [17], this compound displayed a TGI of 16.1 µM.
As to `CC1=NC(=Cc2cc(Br)cc(Br)c2)C(=O)N1n1c(-c2ccccc2)nc2ccccc2c1=O`, the TGI in assay [1], in assay [2], in [3], in [4], in assay [5] and in [6] was more than 100 µM each time. The TGI in assay [7], in assay [20], in assay [8], in assay [9], in assay [10] and in [11] was more than 100 µM each time. Also, the TGI in [18], in assay [12], in [13], in [14], in assay [15] and in assay [16] was more than 100 µM in each case. Further, the TGI in assay [17] was more than 100 µM.
For the compound `COC(=O)c1c(C#N)[nH]c(-c2ccsc2)c1C(=O)OC`, the TGI in assay [1], in assay [2], in assay [3], in assay [4], in assay [5] and in [19] was more than 100 µM in each case. In addition, the TGI in [6], in [7], in assay [20], in [9], in assay [11] and in assay [18] was more than 100 µM each time. The TGI in assay [12], in assay [14], in assay [15], in assay [16] and in assay [17] was more than 100 µM each time.
`O=C(c1cccs1)N(C(=O)N1CCN(c2ccccc2)CC1)S(=O)(=O)c1ccccc1`: the TGI was 33.3 µM in assay [1]; 84 µM in assay [2]; 40.4 µM in [3]; 39.9 µM in assay [4]; 74.6 µM in assay [5]; more than 100 µM in assay [19]. Further, the TGI is more than 100 µM in assay [6]; 51.6 µM in [7]; more than 100 µM in assay [20]; 97.3 µM in assay [8]; 53.8 µM in assay [9]; more than 100 µM in assay [10]. The TGI in assay [11] was determined as 30.1 µM; in [18] it was 59.5 µM; in assay [12], 56.3 µM; in assay [13] it was 72.2 µM; in assay [14] it was 60.9 µM; in [15], 40.8 µM. This compound returned a TGI in [17] of 49.3 µM.
For `Cc1nn(C(=O)c2ccc(Cl)cc2)c2c1C(/C=C/c1ccccc1)SC(N)=N2` (stereo not given), the TGI in assay [1], in assay [2], in [3], in assay [4], in [5] and in [6] was more than 10 µM each time. Also, the TGI in assay [7], in assay [20], in [8], in [9], in assay [10] and in assay [11] was more than 10 µM each time. Further, the TGI in assay [18], in assay [12], in assay [13], in assay [14], in [16] and in assay [17] was more than 10 µM throughout.
As to `O=C(Nc1nncs1)NS(=O)(=O)n1c(=S)sc2ccccc21`, the TGI in [1], in [2], in assay [3], in assay [4], in assay [5] and in assay [19] was more than 100 µM throughout. The TGI in [6], in assay [7], in assay [20], in [8], in assay [10] and in [11] was more than 100 µM each time. Besides, the TGI in assay [18], in assay [12], in assay [13], in assay [14], in assay [15] and in [16] was more than 100 µM each time. Also, the TGI in assay [17] was more than 100 µM.
As for `COc1cc(C(C)=O)cc(C(=O)N(C(C)C)C(C)C)c1[Si](C)(C)C`, the TGI in [1], in [2], in assay [3], in assay [4], in assay [5] and in assay [19] was more than 100 µM throughout. The TGI in assay [6] was more than 100 µM; in assay [7] it was more than 100 µM; in assay [20], 99.2 µM; in assay [8], more than 100 µM; in assay [9], more than 100 µM; in assay [10], more than 100 µM. For the same compound, the TGI in assay [11], in assay [18], in assay [12], in [13], in assay [14] and in assay [15] was more than 100 µM each time. The same compound came in with a TGI in assay [16] of more than 100 µM.

The record behind these values is PubChem BioAssay (NCI).
